System: KRAS patient-derived spheroids with HUVEC/MSC, viability
Test: Anticancer human tumor 323965-272-R-J2-PDC patient-derived pancreatic carcinoma cell line growth inhibition [KRAS2]
Details: for IC50: curve of first compound; for viability, T/C: stronger effect = lower value
Outline: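 Combination screen of spheroid viability in tumor-cell co-cultures with endothelial (HUVEC) and mesenchymal stem cell stroma. Each agent was tested in half-log dilutions, topping at clinical Cmax or at 10 microM without a known Cmax.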

[1] = second compound 0.1 µM, first compound 0.0316 µM
[2] = second compound 0.1 µM, first compound 0.1 µM
[3] = second compound 0.1 µM, first compound 0.316 µM
[4] = second compound 0.1 µM, first compound 1 µM
[5] = second compound 0.1 µM, first compound 3.16 µM
[6] = second compound 0.1 µM, first compound 10 µM
[7] = second compound 0.316 µM, first compound 0.0316 µM
[8] = second compound 0.316 µM, first compound 0.1 µM
[9] = second compound 0.316 µM, first compound 0.316 µM
[10] = second compound 0.316 µM, first compound 1 µM
[11] = second compound 0.316 µM, first compound 3.16 µM
[12] = second compound 0.316 µM, first compound 10 µM
[13] = second compound 1 µM, first compound 0.0316 µM
[14] = second compound 1 µM, first compound 0.1 µM
[15] = second compound 1 µM, first compound 0.316 µM
[16] = second compound 1 µM, first compound 1 µM
[17] = second compound 1 µM, first compound 3.16 µM
[18] = second compound 1 µM, first compound 10 µM
[19] = second compound 3.16 µM, first compound 0.0316 µM
[20] = second compound 3.16 µM, first compound 0.1 µM
[21] = second compound 3.16 µM, first compound 0.316 µM
[22] = second compound 3.16 µM, first compound 1 µM
[23] = second compound 3.16 µM, first compound 3.16 µM
[24] = second compound 3.16 µM, first compound 10 µM
[25] = second compound 10 µM, first compound 0.0316 µM
[26] = second compound 10 µM, first compound 0.1 µM
[27] = second compound 10 µM, first compound 0.316 µM
[28] = second compound 10 µM, first compound 1 µM
[29] = second compound 10 µM, first compound 3.16 µM
[30] = second compound 10 µM, first compound 10 µM
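Note: spheroids exposed to agents for 7 days.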
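Throughout, for viability, T/C: 100% = DMSO vehicle control viability.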

## CCNC(=O)CC1N=C(c2ccc(Cl)cc2)c2cc(OC)ccc2-n2c(C)nnc21 (stereo not given) + C=CC(=O)N1CCN(c2nc(=O)n(-c3c(C)ccnc3C(C)C)c3nc(-c4c(O)cccc4F)c(F)cc23)C(C)C1
Second compound 0.1 µM
  IC50: 116 nM
Second compound 0.316 µM
  IC50: 135 nM
Second compound 1 µM
  IC50: 51.8 nM
Second compound 3.16 µM
  IC50: 111 nM
Second compound 10 µM
  IC50: < 31.6 nM
[1]
  viability, T/C: 54.6%
[2]
  viability, T/C: 52.5%
[3]
  viability, T/C: 35.9%
[4]
  viability, T/C: 30.9%
[5]
  viability, T/C: 30%
[6]
  viability, T/C: 25.6%
[7]
  viability, T/C: 51.5%
[8]
  viability, T/C: 55.5%
[9]
  viability, T/C: 40%
[10]
  viability, T/C: 31%
[11]
  viability, T/C: 28.6%
[12]
  viability, T/C: 25.7%
[13]
  viability, T/C: 51.3%
[14]
  viability, T/C: 49.2%
[15]
  viability, T/C: 40%
[16]
  viability, T/C: 32.5%
[17]
  viability, T/C: 27.6%
[18]
  viability, T/C: 30.1%
[19]
  viability, T/C: 57.1%
[20]
  viability, T/C: 51.9%
[21]
  viability, T/C: 35.5%
[22]
  viability, T/C: 33.6%
[23]
  viability, T/C: 28.3%
[24]
  viability, T/C: 28.3%
[25]
  viability, T/C: 46.4%
[26]
  viability, T/C: 38.4%
[27]
  viability, T/C: 27.7%
[28]
  viability, T/C: 24.9%
[29]
  viability, T/C: 20.1%
[30]
  viability, T/C: 18.5%

## Cn1nccc1Nc1nccc(-c2cc3c(s2)C(C)(C)N(CCN2CCOCC2)C3=O)n1 + C=CC(=O)N1CCN(c2nc(=O)n(-c3c(C)ccnc3C(C)C)c3nc(-c4c(O)cccc4F)c(F)cc23)C(C)C1
Second compound 0.1 µM
  IC50: 67.8 nM
Second compound 0.316 µM
  IC50: < 31.6 nM
Second compound 1 µM
  IC50: < 31.6 nM
Second compound 3.16 µM
  IC50: > 10000 nM
Second compound 10 µM
  IC50: < 31.6 nM
[1]
  viability, T/C: 52%
[2]
  viability, T/C: 49.4%
[3]
  viability, T/C: 46.8%
[4]
  viability, T/C: 38.2%
[5]
  viability, T/C: 32.6%
[6]
  viability, T/C: 36%
[7]
  viability, T/C: 48.3%
[8]
  viability, T/C: 48%
[9]
  viability, T/C: 41.8%
[10]
  viability, T/C: 46.1%
[11]
  viability, T/C: 40%
[12]
  viability, T/C: 42.4%
[13]
  viability, T/C: 53.8%
[14]
  viability, T/C: 50%
[15]
  viability, T/C: 45.1%
[16]
  viability, T/C: 43.2%
[17]
  viability, T/C: 43.9%
[18]
  viability, T/C: 60.7%
[19]
  viability, T/C: 51.5%
[20]
  viability, T/C: 53%
[21]
  viability, T/C: 48%
[22]
  viability, T/C: 47.6%
[23]
  viability, T/C: 51.3%
[24]
  viability, T/C: 71.1%
[25]
  viability, T/C: 45.7%
[26]
  viability, T/C: 45.2%
[27]
  viability, T/C: 42.6%
[28]
  viability, T/C: 42.5%
[29]
  viability, T/C: 43.3%
[30]
  viability, T/C: 53.6%

— PubChem BioAssay AID1963869 (Molecular Pharmacology Branch, DTP, NCI, 2024)
